Holding throughout (assay type): in vivo, Long Evans rat
For test [1], the system named is GFAP, HNE, 8-OHdG, ChAT immunoreactivity. Briefly: ic-STZ ± PPAR agonist: immunohistochemical staining of brain. The note with it: for ChAT immunoreactivity: basal forebrain region; for 8-OHdG immunoreactivity / GFAP immunoreactivity / HNE immunoreactivity: temporal cortex. On the procedure:
(§1) Histopathological and Immunohistochemical Staining Studies: Whole fresh brains were immersion fixed in Histofix (Amresco, Solon, Ohio) and then sectioned in the coronal plane along standardized landmarks, embedded in paraffin, and processed for histopathological studies. In addition, fresh brains were sectioned in the coronal plane to obtain a ˜3 mm thick slice that flanked the infundibulum. The 3-mm brain slice was snap frozen between two slabs of dry ice, and then stored at −80° C. for later RNA and protein studies. The residual tissue was immersion fixed and processed for histopathological studies. […] As negative controls for the immunostaining reactions, either the primary antibody was omitted or non-relevant monoclonal antibody to Hepatitis B virus was used in place of the relevant antibody. Immunoreactivity was detected using the avidin-biotin horseradish peroxidase complex method (S. M. de la Monte, T. Luong, T. R. Neely, D. Robinson, J. R. Wands. Mitochondrial DNA damage as a mechanism of cell loss in Alzheimer's disease. Lab Invest 80(8) (2000), 1323-35). All sections were examined under code.
Increased levels of 8-OHdG and 4-hydroxynonenol (HNE) have been detected in brains with AD (W. R. Markesbery, J. M. Carney. Oxidative alterations in Alzheimer's disease. Brain Pathol 9(1) (1999), 133-46, L. M. Sayre, D. A. Zelasko, P. L. Harris, G. Perry, R. G. Salomon, M. A. Smith. 4-Hydroxynonenal-derived advanced lipid peroxidation end products are increased in Alzheimer's disease. J Neurochem 68(5) (1997), 2092-7). […] In addition, it was of interest to relate indices of oxidative stress to GFAP immunoreactivity, which reflects astrocytic responses to tissue injury. Paraffin-embedded histological sections of brain were immunostained to detect GFAP, 8-OHdG or HNE using the ABC method with DAB as the chromogen (brown precipitate) and light hematoxylin as the counterstain.

The test system of test [2] is phospho-GSK-3β, GSK-3β, phospho-Tau, Tau. Briefly: ic-STZ ± PPAR agonist: Western blot analysis of GSK-3β and Tau. The following applies: hypothalamus. On the procedure: On the same day, sub-sets of the ic-STZ group were given a single intra-peritoneal injection of vehicle (saline), or a PPAR-α (GW7647; 25 ug/Kg), PPAR-δ (L-165,041; 2 μg/Kg), or PPAR-γ (F-L-Leu; 20 μg/Kg) activator (CalBiochem, Carlsbad, Calif.). […] In addition, at 4 weeks of age, memory and learning were evaluated using a Morris Water Maze (R. W. Hickey, M. Akino, S. Strausbaugh, G. M. De Courten-Myers. Use of the Morris water maze and acoustic startle chamber to evaluate neurologic injury after asphyxial arrest in rats. Pediatr Res 39(1) (1996), 77-84). The procedures and use of rats in these experiments were approved by the Lifespan-Rhode Island Hospital IACUC committee.
Western Blot Analysis: Western blot analysis was used to assess the levels of Tau, phospho-Tau, GSK-3β, phospho-GSK-3β, and β-actin in temporal lobe tissue (E. J. Rivera, A. Goldin, N. Fulmer, R. Tavares, J. R. Wands, S. M. de la Monte, J. Alzheimers Dis 8(3) (2005), 247-68). Briefly, samples containing 40 μg protein were fractionated by sodium dodecyl sulfate, polyacrylamide gel electrophoresis (SDS-PAGE) (F. Ausubel, R. Brent, R. Kingston, D. Moore, J. Seidman, J. Smnith, et al. Current Protocols in Molecular Biology. (2000)). and transferred to PVDF membranes. Non-specific binding sites were adsorbed with SuperBlock-TBS (Pierce, Rockford, Ill.). Membranes were incubated over night at 4° C. with primary antibody (0.1-1 μg/ml-individually optimized) diluted in Tris-buffered saline (TBS; 50 mM Tris, 150 mM NaCl, pH 7.4) containing 0.5% bovine serum albumin, 0.05% Tween-20, and 0.025% NaN3 (TBST-BSA). Immunoreactivity was detected using horseradish peroxidase (HRP) conjugated IgG (Pierce, Rockford, Ill.) diluted to 1:50,000 in TBST+0.5% cassein, Western Lightning enhanced chemiluminescence reagents (Perkin Elmer Life Sciences Inc., Boston, Mass.), and digital imaging. Immunoreactivity was quantified using the Kodak Digital Science Imaging Station (NEN Life Sciences, Boston, Mass.).
PPAR Agonist Treatment Reduces ic-STZ-Mediated AD-Type Neurodegeneration: In AD, the neuronal cytoskeletal lesions that correlate with dementia, i.e. neurofibrillary tangles, dystrophic neuritis, and neuropil threads, contain insoluble fibrillar structures that are generated in part from hyper-phosphorylated Tau (K. Iqbal, C. Alonso Adel, S. Chen, M. O. Chohan, E. El-Akkad, C. X. Gong, et al. Tau pathology in Alzheimer disease and other tauopathies. Biochim Biophys Acta 1739(2-3) (2005), 198-210). […] J Alzheimers Dis 7(1) (2005), 63-80). […] Therefore, it was of interest to characterize the effects of PPAR agonists on GSK-3β activity and Tau phosphorylation in ic-STZ-treated brains. The levels of phospho-GSK-3β, GSK-3β, phospho-Tau, Tau, and β-actin ([…]) were examined in temporal lobe and hypothalamus homogenates by Western blot analysis. Immunoreactivity was detected and quantified by digital imaging, and the mean levels of protein expression and ratios of phospho-GSK-3β/GSK-3β and phospho-Tau/Tau measured in 4 replicate samples are depicted graphically (FIG. 31). Phospho-GSK-3β immunoreactivity was detected with antibodies directed against the Ser21/9 motif, corresponding to the inactivate form of the kinase.
On the technique in general: Immunoblotting shows a protein as a band on a membrane.

Test [3] deals with ic-STZ-induced neurodegeneration. Briefly: ic-STZ ± PPAR agonist: brain histopathology (H&E). The note with it: for preservation of cerebellar cortical architecture (H&E) / preservation of hippocampi and temporal lobes (H&E): 4 weeks after ic-STZ ± single IP PPAR agonist. On the procedure:
In addition, at 4 weeks of age, memory and learning were evaluated using a Morris Water Maze (R. W. Hickey, M. Akino, S. Strausbaugh, G. M. De Courten-Myers. Use of the Morris water maze and acoustic startle chamber to evaluate neurologic injury after asphyxial arrest in rats. Pediatr Res 39(1) (1996), 77-84). The procedures and use of rats in these experiments were approved by the Lifespan-Rhode Island Hospital IACUC committee.
as §1

Entries after “also recorded” stand apart in the source; their conditions may differ.

Take `CC(C)(Sc1ccc(CCN(CCCCC2CCCCC2)C(=O)NC2CCCCC2)cc1)C(=O)O` [PPAR-α agonist, GW7647]: in test [1], the ChAT immunoreactivity entry was “variably increased”, the 8-OHdG immunoreactivity entry is on record as “conspicuously reduced”, the GFAP immunoreactivity entry was “no clear effect” and the HNE immunoreactivity entry is given as “no clear effect”. For the same compound, in test [2], the phospho-GSK-3β level entry is “significantly increased”, the “phospho-Tau level relative to control” value was “significantly higher” and the “total Tau protein level” value is recorded as “slightly higher levels of Tau relative to all other groups”. In test [3], the “preservation of cerebellar cortical architecture (H&E)” value is listed as “moderately effective; also recorded: markedly reduced”; the “preservation of hippocampi and temporal lobes (H&E)” value was “less effective than the PPAR-δ agonist”.

As to `CC(C)C[C@H](NC(=O)OCC1c2ccccc2-c2ccccc21)C(=O)O` [PPAR-γ agonist, F-L-Leu], in test [1], the ChAT immunoreactivity result is “variably increased”, the 8-OHdG immunoreactivity result is “conspicuously reduced” and the HNE immunoreactivity entry was “moderately reduced”. Besides, in test [2], the phospho-GSK-3β level result is listed as “significantly reduced” and the “phospho-Tau level relative to control” value is on record as “moderately reduced”. Moreover, in test [3], the “preservation of cerebellar cortical architecture (H&E)” value is listed as “ineffective”; the “preservation of hippocampi and temporal lobes (H&E)” value is given as “least effective”.

`CCCc1c(OCCCOc2ccc(OCC(=O)O)cc2)ccc(C(C)=O)c1O` [PPAR-δ agonist, L-165,041]: in test [1], the ChAT immunoreactivity result is “variably increased”, the 8-OHdG immunoreactivity result is on record as “conspicuously reduced”, the GFAP immunoreactivity entry is recorded as “conspicuously reduced” and the HNE immunoreactivity result is “conspicuously reduced”. Moreover, in test [2], the phospho-GSK-3β level result is “significantly increased” and the “phospho-Tau level relative to control” value is “moderately reduced”. Moreover, in test [3], the “preservation of cerebellar cortical architecture (H&E)” value is reported as “moderately effective; also recorded: markedly reduced”; the “preservation of hippocampi and temporal lobes (H&E)” value is “most striking therapeutic rescue”. Moreover, the “share of temporal cortex thickness spanned by the horizontal scale bar” value in test [3] (FIG. 25A-E, control 30%) was determined as 30%.

On to `CN(N=O)C(=O)NC1C(O)OC(CO)C(O)C1O` (centres unmarked) [STZ], for which the ChAT immunoreactivity result in test [1] is reported as “markedly reduced”.
